The source of these data is PMC11859184, “Synthesis and Evaluation of ^68Ga- and ^177Lu-Labeled [diF-Pro^14]Bombesin(6−14) Analogs for Detection and Radioligand Therapy of Gastrin-Releasing Peptide Receptor-Expressing Cancer” (Pharmaceuticals, 2025).

Experiment [1] addresses T1, GRPR (Homo sapiens, UniProt P30550).
T1 construct: host or cells: PC-3 cells
Put plainly: Fluorometric intracellular calcium release assay using PC-3 cells. Format: cell-based. The note with it: for intracellular calcium release: 50 nM ligand, n = 4. The protocol: The agonist/antagonist characteristics of LW02060, Ga-LW02060, Lu-LW02060, LW02080, Ga-LW02080, and Lu-LW02080 were determined following published procedures. The PC-3 cells were obtained from ATCC (via Cedarlane, Burlington, ON, Canada). A 96-well clear bottom black plate was seeded with 5 × 10^4 PC-3 cells in 100 μL growth media per well 24 h before the assay. The loading buffer (100 μL/well) containing a calcium-sensitive dye (FLIPR Calcium 6 assay kit from Molecular Devices, San Jose, CA, USA) was added into the 96-well plate, followed by 1 h incubation at 37 °C. The plate was then transferred into a FlexStation 3 microplate reader (Molecular Devices, San Jose, CA, USA). LW02060 (50 nM), Ga-LW02060 (50 nM), Lu-LW02060 (50 nM), LW02080 (50 nM), Ga-LW02080 (50 nM), Lu-LW02080 (50 nM), [D-Phe^6,Leu-NHEt^13,des-Met^14]Bombesin(6–14) (50 nM, antagonist control), bombesin (50 nM, agonist control), adenosine triphosphate (ATP, 50 nM, positive control), or DPBS (blank control) was added, and the fluorescent signals were measured for 2 min (λEx = 485 nm; λEm = 525 nm; n = 4). The relative fluorescent units (RFU = max − min) were calculated to determine the agonistic/antagonistic characteristics of LW02060, Ga-LW02060, Lu-LW02060, LW02080, Ga-LW02080, and Lu-LW02080, respectively.
A general note: Calcium flux is commonly read through the fluorescence of an indicator in the cells.

For experiment [2], the system named is PC-3 tumor-bearing mice. Put plainly: Ex vivo biodistribution of 177Lu-labeled ligands in PC-3 tumor-bearing mice. The note with it: 1 h pi, 100 µg [D-Phe6,Leu-NHEt13,des-Met14]Bombesin(6-14). The protocol:
SPECT/CT imaging was conducted using an MI Labs (Houten, The Netherlands) U-SPECT-II/CT scanner with a custom-made ultra-high sensitivity big mouse collimator (2 mm pinhole size) following published procedure. The experiments were obtained in accordance with the same protocol established in the PET/CT imaging and ex vivo biodistributions section. The mice were used for SPECT/CT imaging and ex vivo biodistributions studies once the tumors reached a diameter of 5–8 mm. PC-3 tumor-bearing mice were sedated (2.5% isoflurane in O2) and injected with 31.4–36.9 MBq of the ^177Lu-labeled ligand through a lateral caudal tail vein. The mouse was imaged at 1, 4, 24, 72, and 120 h pi. At each time point, a 5 min CT scan was performed with 615 μA and 60 kV parameters for localization and attenuation, followed by two 30 min static SPECT scans in list mode with an energy window centered around 208 keV. The U-SPECT II software was used to reconstruct data, and the images were decay corrected to the time of injection with PMOD v 3.402 (PMOD Technologies GmbH, Fallanden, Switzerland).
For ex vivo biodistribution studies, the mice were injected with ~3–5 MBq of the ^177Lu-labeled ligand (n = 5). At 1, 4, 24, 72, and 120 h post-injection, the mice were anesthetized with 2% isoflurane, euthanized by CO2 inhalation, and the tissues/organs of interest were […] for radioactivity counting. The blocking study was performed at 1 h pi via co-injection of the ^177Lu-labeled ligand with 100 μg of [D-Phe^6,Leu-NHEt^13,des-Met^14]Bombesin(6–14).

T1 sequence (P30550 whole entry): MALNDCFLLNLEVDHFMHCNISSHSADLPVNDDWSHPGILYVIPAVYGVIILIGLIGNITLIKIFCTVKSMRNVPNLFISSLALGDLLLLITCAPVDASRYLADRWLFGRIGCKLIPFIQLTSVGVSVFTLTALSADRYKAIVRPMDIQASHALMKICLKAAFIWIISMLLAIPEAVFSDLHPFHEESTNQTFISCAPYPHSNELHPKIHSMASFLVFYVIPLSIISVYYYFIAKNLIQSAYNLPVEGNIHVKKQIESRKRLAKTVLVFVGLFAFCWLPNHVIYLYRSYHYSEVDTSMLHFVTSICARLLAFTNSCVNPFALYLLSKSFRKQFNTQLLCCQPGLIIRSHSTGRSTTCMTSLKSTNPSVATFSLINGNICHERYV

As for “DOTA-Pip-[D-Phe^6,NMe-Gly^11,Leu^13(ψ)diF-Pro^14]Bombesin(6–14) [LW02080]”, in experiment [1], the agonist/antagonist characteristics result is recorded as “GRPR antagonists” and the intracellular calcium release worked out at 11.4 ± 0.32 RFU. Turning to `CC(C)C[C@H](NC(=O)[C@H](Cc1cnc[nH]1)N(C)C(=O)CNC(=O)[C@@H](NC(=O)[C@H](C)NC(=O)[C@H](Cc1c[nH]c2ccccc12)NC(=O)[C@H](CCC(N)=O)NC(=O)[C@@H](Cc1ccccc1)NC(=O)CN1CCC(NC(=O)CN2CCN(CC(=O)O)CCN(CC(=O)O)CCN(CC(=O)O)CC2)CC1)C(C)(C)C)C(=O)N1CC(F)(F)C[C@H]1C(N)=O` [[^177Lu]Lu-LW02060] [metal not drawn], in experiment [2], the “reduction of pancreas uptake by co-injection of blocking agent” value was found to be 81%, the “reduction of small intestine uptake by co-injection of blocking agent” value was 66%, the “reduction of stomach uptake by co-injection of blocking agent” value is on record as 72% and the “reduction of tumor uptake by co-injection of blocking agent” value was 66%.

Consider “DOTA-Pip-[D-Phe^6,Tle^10,NMe-His^12,diF-Pro^14]Bombesin(6–14) [LW02060]”, for which, in experiment [1], the agonist/antagonist characteristics result is on record as “GRPR agonists” and the intracellular calcium release is given as 377 ± 41.9 RFU. In the case of bombesin [reference compound], the intracellular calcium release in experiment [1] turned out to be 371 ± 17.9 RFU. Still for that read-out and setting: then `Nc1ncnc2c1ncn2[C@@H]1O[C@H](COP(=O)(O)OP(=O)(O)OP(=O)(O)O)[C@@H](O)[C@H]1O` [ATP, adenosine triphosphate, reference compound], with 286 ± 9.44 RFU; and “[D-Phe^6,Leu-NHEt^13,des-Met^14]Bombesin(6–14) [reference compound]”, with 16.6 ± 3.84 RFU. `CC(C)C[C@@H](CN1CC(F)(F)C[C@H]1C(N)=O)NC(=O)[C@H](Cc1c[nH]cn1)NC(=O)CN(C)C(=O)[C@@H](NC(=O)[C@H](C)NC(=O)[C@H](Cc1c[nH]c2ccccc12)NC(=O)[C@H](CCC(N)=O)NC(=O)[C@@H](Cc1ccccc1)NC(=O)CN1CCC(NC(=O)CN2CCN(CC(=O)O)CCN(CC(=O)O)CCN(CC(=O)O)CC2)CC1)C(C)C` [[^177Lu]Lu-LW02080] [metal not drawn]: the “reduction of tumor uptake by co-injection of blocking agent” value in experiment [2] is 64%.
